What was measured:
[1] = tested on: pollinosis; assay: Case report: SCV-07 before specific immunotherapy of pollinosis; format: in vivo, human; conditions: SCV-07 perorally 1.5 mg once a day for 10 days, 15 days before SIT; season April-June 2006
Experimental: Patient.—P-na M. N., 45 years. Date of first consultation—October 2004. From the end of November 2004 to mid-March 2005, the patient underwent specific immunotherapy (SIT) for pollinosis, using the allergoid (“Puretal-tree”) according to the scheme: subcutaneous once a week, beginning with a single dose of the administered allergoid of 0.025 mL, the subsequent dose are escalated during the course of treatment until reaching a single dose of 0.5 mL (0.025 mL-0.05 mL, −0.1 mL-0.2 mL-0.3 mL-0.4 mL-0.5 mL), and the following does are staying on this dose. Considering the above situation, during October 2005, to increase the clinical effectiveness of SIT, under initiating or anticipatory conditions, immune stimulation—a course of the preparation “SCV-07” —was perorally administered as follows: 1.5 mg once a day daily for 10 days in a row. On completion of the “SCV-07” course, the patient, from the middle of November 2005 through mid-March 2006, underwent another course of SIT for pollinosis, using the allergoid “Puretal-tree” according to the previous scheme. The interval between the “SCV-07” course and the beginning of the SIT course for pollinosis was 15 days.

[2] = tested on: RBCs and protein in the BAL; assay: Lung injury / microvascular permeability: RBCs and total protein in BAL, guinea pig model; format: in vivo, Dunkin-Hartley guinea pigs
Experimental: Animals were sensitized on day 0 ip with 50 mg/kg OVA. On Days 17, 18, 19, and 20, animals received an ip injection between 8 and 10 am with PBS, SCV-07 at 1 ug/kg, or SCV-07 at 10 ug/kg (Peptide treatment). Between 8 and 10 a.m. on Day 21, animals were administered peptide 2 hours before OVA or saline (NSS) aerosol challenge. 30 min before OVA or NSS aerosol challenge each animal was injected ip with an antihistamine (6.1 mg/kg pyrilamine maleate) to prevent death due to the anaphylactic response that accompanies aerosol OVA challenge. Animals were exposed to aerosol in pairs with either 1% OVA solution or NSS for 5 min in a plexiglass chamber (22×22×29 cm) using a DeVilbiss Model 35B Ultrasonic Nebulizer. Animals were observed during the total 5 min aerosolization and comments recorded. Within 22-24 hours after challenge, animals were euthanized, bled by cardiac puncture, lavaged and lung lobes removed for measurement of cellular infiltration. At the time of OVA or NSS challenge and euthanasia, animal weights ranged from approximately 350-550 g, with the average weight approximately 420 g. This experimental protocol is similar to that used in previously published studies (Regal and Fraser, 1996; Regal et al., 2000). […] Total white blood cells in BAL were counted by standard methods in a hemacytometer using Turk's solution. […] Four hundred cells were counted and identified as eosinophils, neutrophils, or mononuclear cells. […] EPO activity from the homogenized lung after lavage was expressed as total OD/min from the left caudal lobe. MPO activity from the homogenized lung after lavage was expressed as total units of enzyme activity from the right caudal lobe. […] OD412 of the BAL supernatant was also determined to estimate the number of RBCS that were lysed during the lavage procedure and prior to re-suspension of the cells for counting. […] Lung injury and/or changes in microvascular permeability were assessed by determining the RBCs in the BAL (FIG. 7A-B) as well as the overall protein content of the BAL fluid (FIG. 7C). […]

[3] = tested on: spleen lymphocytes; conditions: cited from earlier work
[4] = tested on: bone marrow cells; conditions: cited from earlier work

N[C@H](CCC(=O)N[C@@H](Cc1c[nH]c2ccccc12)C(=O)O)C(=O)O [SCV-07, γ-D-glutamyl-L-tryptophan]
Seasonal rhinoconjunctival symptoms after SIT preceded by SCV-07 course [1]: seasonal rhinoconjunctival symptoms were virtually absent | OD412 of the BAL supernatant ([2]; change from NSS to OVA): significantly reduced | Number of RBCs in the BAL (OD412 of lysed cell pellet), change from NSS to OVA ([2]; either 1 or 10 ug/kg): significantly attenuated | Total protein in the BAL fluid ([2]; guinea pig, in vivo): not affected | Con-A-induced interleukin-2 (IL-2) production by spleen lymphocytes [3]: increases | IL-2 receptor expression by spleen lymphocytes [3]: increases | Expression of Thy-1.2 on bone marrow cells [4]: stimulates expression

Source: patent publication US20100204295A1, “TREATMENT OF ALLERGIC DISEASE WITH IMMUNOMODULATOR COMPOUNDS” (SCICLONE PHARMACEUTICALS, INC., priority 2007, published 2010)
